We go through 23 molecules from patent US9914712B2, “Antibacterial thiazolecarboxylic acids” (priority 2013, dated 2018).

One test deals with NTBC039. Kind of test: MIC of meropenem in presence of the inhibitor, broth microdilution. To be noted: compound at 100 μM, 37° C., 18-20 h. It counts as cell-based. A general note: In broth dilution the organism is exposed to a series of concentrations in liquid medium.
In test [1] the test system is NTBC023 strain: Klebsiella pneumoniae producing VIM-1+SHV-5. Described as above. In kind it is cell-based. Conditions: compound at 100 μM, 37° C., 18-20 h. As to the method: (§1) The minimal inhibitory concentration (MIC) of meropenem in presence of the inhibitor is routinely assessed against 3 representative clinical strains: • NTBC020 Strain: Escherichia coli producing NDM-1+TEM-1+CTX-M-15, (isolated in Australia in 2009); • NTBC023 strain: Klebsiella pneumoniae producing VIM-1+SHV-5, (isolated in France in 2002); • NTBC062 strain: Klebsiella pneumoniae producing IMP-1+TEM-1, (isolated in France in 2012);
(§2) The assay was performed according to the standard broth microdilution method described by the Clinical and Laboratory Standards Institute (CLSI-M7-A7—Methods for dilution antimicrobial susceptibility tests for bacteria that grow aerobically; Approved standard; CLSI, Wayne, Pa., USA. 2006). This method involves the use of small volumes of broth dispensed in sterile, plastic 96-wells microdilution plates. The compounds were tested at a concentration of 100 μM and controls included the susceptibility tests for the three selected strains without the compounds and for the two reference strains E. coli ATCC 25922 and Pseudomonas aeruginosa ATCC 27853 as Quality Controls.
(§3) From a stock solution at 20 mM in DMSO, compounds were prepared by diluting 0.04 mL of the compound solution in 0.04 mL of Mueller-Hinton (MH) broth (2-fold dilution). Then, 0.001 mL of the compound dilution was distributed in the 96-wells microdilution plates to give a final concentration of 100 μM for a final volume of 0.1 mL by well.
(§4) From a meropenem stock solution at 10 mg/ml in water, meropenem 2-fold serial dilutions were prepared in MH broth at twice the desired final concentrations, e.g from 512 to 0.0037 μg/ml. The 96-wells microdilution plates were then filled with 0.05 mL of the meropenem dilutions. For each susceptibility test, two wells were left free of antibiotic and filled with 0.05 mL of sterile MH broth to serve as growth controls.
(§5) The bacterial inoculum was prepared by direct colony suspension from a 24 h-agar plate in saline solution (NaCl 9 g/L). The suspension was adjusted to a 0.5 MacFarland turbidity standard (1-2×10^8 CFU/mL) and then diluted 1:100 in MH broth. 0.05 mL of the bacterial dilution was then inoculated to each well giving a final volume of 0.1 mL and a final bacterial concentration of approximately 5×10^5 CFU/mL.
(§6) Microdilution plates were incubated at 37° C. in an ambient air incubator for 18-20 h.

For test [2], the system named is NTBC020 Strain: Escherichia coli producing NDM-1+TEM-1+CTX-M-15. The test is described as above. It counts as cell-based. Conditions: compound at 100 μM, 37° C., 18-20 h. The protocol: as §1, §2, §3, §4, §5, §6
Another test has as its target T1, IMP-1 (Serratia marcescens, UniProt P52699).
T1 construct: made in house
In words: In vitro MBL inhibition assay, imipenem hydrolysis (IMP-1). In kind it is biochemical. Conditions: Ki IMP-1, imipenem substrate, Ki from IC50 by Cheng-Prusoff, Km 25 μM. As to the method: The MBL enzyme IMP-1 is produced and purified as disclosed in Laraki et al, Antimicrobial Agents & Chemotherapy, (1999), 43(4), 902-906.
(§7) Reaction buffers were prepared in a UV-transparent 96-well microplate, which buffer contains 10 mM HEPES pH 7.5, 50 μM ZnSO4, 20 μg/mL BSA. An amount of 75 ng of protein was added to each well.
(§8) Spectrophometric assays are performed to determine NDM-1/VIM-2/IMP-1 carbapenemase activity using purified proteins (50 ng for NDM-1/VIM-2, 25 ng IMP-1) from NDM-1/VIM-2/IMP-1 expressing bacteria using […] of imipenem as substrate in 10 mM HEPES pH 7.5, 50 μM ZnSO4. MBL hydrolysis is measured at 299 nm for 10 minutes at 30° C. as the absorbance changes due to the opening of beta-lactam ring of the antibiotic.
(§9) The Ki values obtained for selected example compounds are shown in Table 3, where they are compared with the values for pyridine-2-carboxylic acid.

In another test the target is T2, VIM-2 (Escherichia coli, UniProt Q5U7L7).
T2 construct: made in house
Kind of test: In vitro MBL inhibition assay, imipenem hydrolysis (VIM-2). It counts as biochemical. Conditions: Ki VIM-2, imipenem substrate, Ki from IC50 by Cheng-Prusoff, Km 9 μM. As to the method: The MBL enzyme VIM-2 is produced and purified as disclosed in Borgianni et al, Antimicrobial Agents & Chemotherapy, (2010), 54(8), 3197-3204.
as §7, §8, §9

The target in the next test is T3, NDM-1 (Klebsiella pneumoniae, UniProt C7C422).
T3 construct: made in house
Kind of test: In vitro MBL inhibition assay, imipenem hydrolysis (NDM-1). It counts as biochemical. Conditions: Ki NDM-1, imipenem substrate, Ki from IC50 by Cheng-Prusoff, Km 70 μM. As to the method:
NDM-1 is produced and purified as disclosed in Yong et al, Antimicrobial Agents & Chemotherapy, (2009) 53(12), 5046-54.
as §7, §8, §9

T1 sequence (P52699 19-246, species assumed): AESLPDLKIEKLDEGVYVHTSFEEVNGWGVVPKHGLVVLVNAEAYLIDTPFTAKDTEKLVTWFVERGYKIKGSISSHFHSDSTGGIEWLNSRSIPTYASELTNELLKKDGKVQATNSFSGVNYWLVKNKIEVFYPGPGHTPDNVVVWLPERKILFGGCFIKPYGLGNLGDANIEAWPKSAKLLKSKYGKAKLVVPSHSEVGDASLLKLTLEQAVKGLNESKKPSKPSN
T3 sequence (C7C422 29-270 limits assumed): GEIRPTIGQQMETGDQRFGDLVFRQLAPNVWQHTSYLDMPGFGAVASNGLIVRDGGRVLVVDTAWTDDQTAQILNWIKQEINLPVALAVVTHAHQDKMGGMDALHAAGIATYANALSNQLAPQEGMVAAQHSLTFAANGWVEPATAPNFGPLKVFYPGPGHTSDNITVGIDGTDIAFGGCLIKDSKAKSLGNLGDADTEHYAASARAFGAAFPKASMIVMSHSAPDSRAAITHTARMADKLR

For the molecule `O=C(O)c1ncsc1NS(=O)(=O)c1ccc(C2CCNCC2)cc1` [Compound 118, 5-{[4-(piperidin-4-yl)phenyl]sulfonamido}-1,3-thiazole-4-carboxylic acid], the MIC of meropenem, strain NTBC039 in the test with NTBC039 came out at 4 µg/mL. Moreover, in test [1], the MIC of meropenem, strain NTBC023 was determined as 8 µg/mL. Besides, the MIC of meropenem, strain NTBC020 in test [2] stood at 4 µg/mL.

Usually Ki stands for a dissociation constant, usually derived from enzyme kinetics or from competition with a known ligand. As for `O=C(O)c1ccccn1` [Pyridine-2-carboxylic acid, pyridine-2-carboxylic acid, reference compound], the figures for the Ki on IMP-1, at VIM-2 and on NDM-1 were 300000 nM, 1000 nM and 3000 nM, respectively.

On to `CN(Cc1ccccc1)S(=O)(=O)Nc1scnc1C(=O)O` [Compound 77, 5-{[benzyl(methyl)sulfamoyl]amino}-1,3-thiazole-4-carboxylic acid], for which the Ki at IMP-1 was found to be 120 nM; on VIM-2, 30 nM; on NDM-1, 1300 nM.

`CC(c1ccccc1)S(=O)(=O)Nc1scnc1C(=O)O` (stereo not drawn) [Compound 60, 5-[(1-phenylethyl)sulfonamido]-1,3-thiazole-4-carboxylic acid]: the inhibitory constant (Ki) on IMP-1 turned out to be 70 nM; on VIM-2 it was 100 nM; on NDM-1, 800 nM.

Consider `CC(=O)Nc1ccc(S(=O)(=O)Nc2scnc2C(=O)O)cc1` [Compound 78, 5-[(4-acetamidophenyl)sulfonamido]-1,3-thiazole-4-carboxylic acid], for which the inhibitory constant (Ki) at IMP-1 came to 50 nM; at VIM-2, 400 nM; on NDM-1, 160 nM.

Consider `O=C(O)c1ncsc1NS(=O)(=O)CC1CCCCC1` [Compound 69, 5-(cyclohexylmethyl)sulfonamido-1,3-thiazole-4-carboxylic acid], for which, in the test on NTBC039, the MIC of meropenem, strain NTBC039 turned out to be 1 µg/mL. For the same molecule, in test [1], the MIC of meropenem, strain NTBC023 came to 4 µg/mL. In addition, the MIC of meropenem, strain NTBC020 in test [2] amounted to 16 µg/mL.

Consider `O=C(O)c1nc(-c2ccccc2)sc1NS(=O)(=O)c1ccccc1` [Compound 58, 5-benzenesulfonamido-2-phenyl-1,3-thiazole-4-carboxylic acid], for which the inhibition constant (Ki) was 70 nM at IMP-1, 800 nM on VIM-2 and 2300 nM at NDM-1.

`O=C(O)c1ncsc1NS(=O)(=O)CCc1cccnc1` [Compound 151, 5-[2-(pyridin-3-yl)ethylsulfonamido]-1,3-thiazole-4-carboxylic acid]: the Ki turned out to be 1800 nM on IMP-1, 100 nM at VIM-2 and 3200 nM at NDM-1.

Regarding `Cc1nc(C(=O)O)c(NS(=O)(=O)Cc2ccccc2)s1` [Compound 50, 5-benzylsulfonamido-2-methyl-1,3-thiazole-4-carboxylic acid], the Ki on IMP-1 came out at 60 nM; on VIM-2 it was 260 nM; at NDM-1 it was 1700 nM.

Consider `O=C(O)c1ncsc1NS(=O)(=O)c1ccc(-c2ccccc2)s1` [Compound 20, 5-(5-phenylthiophene-2-sulfonamido)thiazole-4-carboxylic acid], for which the Ki on IMP-1 came out at 100 nM; at VIM-2, 480 nM; at NDM-1, 940 nM.

On to `O=C(O)c1ncsc1NS(=O)(=O)c1ccc(-n2cccn2)cc1` [Compound 94, 5-{[4-(1H-pyrazol-1-yl)phenyl]sulfonamido}-1,3-thiazole-4-carboxylic acid], for which, in the test with NTBC039, the MIC of meropenem, strain NTBC039 turned out to be 4 µg/mL. Also, the MIC of meropenem, strain NTBC023 in test [1] worked out at 8 µg/mL. The MIC of meropenem, strain NTBC020 in test [2] stood at 16 µg/mL.

With `O=C(O)c1ncsc1NS(=O)(=O)C1CCc2ccccc21` (stereo not drawn) [Compound 104, 5-(2,3-dihydro-1H-indene-1-sulfonamido)-1,3-thiazole-4-carboxylic acid], in the test with NTBC039, the MIC of meropenem, strain NTBC039 amounted to 2 µg/mL. The MIC of meropenem, strain NTBC023 in test [1] is 4 µg/mL. Besides, the MIC of meropenem, strain NTBC020 in test [2] amounted to 16 µg/mL.

In the case of `O=C(O)c1ncsc1NS(=O)(=O)Cc1cc2c(cc1Cl)OCO2` [Compound 144, 5-[(6-chloro-2H-1,3-benzodioxol-5-yl)methylsulfonamido]-1,3-thiazole-4-carboxylic acid], the MIC of meropenem, strain NTBC039 with NTBC039 is 1 µg/mL. Also, the MIC of meropenem, strain NTBC023 in test [1] was determined as 8 µg/mL. Also, the MIC of meropenem, strain NTBC020 in test [2] was determined as 16 µg/mL.

Take `O=C(O)c1ncsc1NS(=O)(=O)N1CCc2ccccc21` [Compound 147, 5-[(2,3-dihydroindole-1-sulfonyl)amino]-1,3-thiazole-4-carboxylic acid]: the MIC of meropenem, strain NTBC039 in the test with NTBC039 was 4 µg/mL. For the same molecule, the MIC of meropenem, strain NTBC023 in test [1] was found to be 16 µg/mL. The MIC of meropenem, strain NTBC020 in test [2] stood at 8 µg/mL.

Regarding `O=C(O)c1ncsc1NS(=O)(=O)Cc1ccccc1` [Compound 5, 5-(phenylmethylsulfonamido)thiazole-4-carboxylic acid], the inhibition constant Ki turned out to be 50 nM at IMP-1, 210 nM at VIM-2 and 2500 nM at NDM-1.

Take `O=C(O)c1ncsc1NS(=O)(=O)CCCc1ccccc1` [Compound 101, 5-[(3-phenylpropyl)sulfonamido]-1,3-thiazole-4-carboxylic acid]: the MIC of meropenem, strain NTBC039 in the test with NTBC039 amounted to 1 µg/mL. Besides, the MIC of meropenem, strain NTBC023 in test [1] was 8 µg/mL. In test [2], the MIC of meropenem, strain NTBC020 came out at 32 µg/mL.

As for `Cc1c(S(=O)(=O)Nc2scnc2C(=O)O)cnn1-c1ccccc1` [Compound 81, 5-[(5-methyl-1-phenyl-1H-pyrazol-4-yl)sulfonamido]-1,3-thiazole-4-carboxylic acid], the Ki stood at 410 nM at IMP-1, 30 nM on VIM-2 and 130 nM at NDM-1.

Consider `O=C(O)c1ncsc1NS(=O)(=O)N1CCCCC1` [Compound 75, 5-[(piperidine-1-sulfonyl)amino]-1,3-thiazole-4-carboxylic acid], for which the inhibition constant (Ki) was 940 nM on IMP-1, 340 nM at VIM-2 and 2100 nM at NDM-1.

`CN(c1ccccc1)S(=O)(=O)Nc1scnc1C(=O)O` [Compound 88, 5-{[methyl(phenyl)sulfamoyl]amino}-1,3-thiazole-4-carboxylic acid]: the values for the Ki on IMP-1, on VIM-2 and at NDM-1 were 580 nM, 160 nM and 1000 nM, respectively.

Consider `O=C(O)c1nc(C(F)(F)F)sc1NS(=O)(=O)Cc1ccccc1Cl` [Compound 96, 5-{[(2-chlorophenyl)methyl]sulfonamido}-2-(trifluoromethyl)-1,3-thiazole-4-carboxylic acid], for which the Ki came to 1200 nM at IMP-1, 350 nM at VIM-2 and 2700 nM on NDM-1.

Take `O=C(O)c1ncsc1NS(=O)(=O)Cc1cccc(Cl)c1Cl` [Compound 48, 5-{[(2,3-dichlorophenyl)methyl]sulfonamido}-1,3-thiazole-4-carboxylic acid]: the MIC of meropenem, strain NTBC039 in the test with NTBC039 stood at 0.25 µg/mL. Further, in test [1], the MIC of meropenem, strain NTBC023 stood at 2 µg/mL. Further, in test [2], the MIC of meropenem, strain NTBC020 turned out to be 4 µg/mL.

For `O=C(O)c1ncsc1NS(=O)(=O)CCN1C(=O)c2ccccc2C1=O` [Compound 63, 5-{[2-(1,3-dioxo-2,3-dihydro-1H-isoindol-2-yl)ethyl]sulfonamido}-1,3-thiazole-4-carboxylic acid], the inhibition constant Ki on IMP-1 came out at 1700 nM; at VIM-2, 130 nM; at NDM-1, 600 nM.

Turning to `O=C(O)c1ncsc1NS(=O)(=O)CCc1ccccc1` [Compound 7, 5-(2-phenylethylsulfonamido)thiazole-4-carboxylic acid], the figures for the Ki on IMP-1, at VIM-2 and at NDM-1 were 30 nM, 80 nM and 750 nM, respectively.
